Measured values taken from patent US10781224B2, “Bis(oxymethyl)phosphinic acid and biogenic metal salts thereof as regulators of plant growth and development” (priority 2016, dated 2020).
“And” between values parts separate entries of the source, which are not always exact repeats. Equal entries are not always repeated.

Tests used:
Type in all cases: in vivo
[1] = tested on: winter wheat (Vershin variety); assay: Winter wheat seed treatment with BHMPA salts: germination energy and germination rate
Experimental: (§1) Control—Soaking Seeds in Water;
(§2) Experimental versions—soaking seeds in BHMPA solutions and solutions of BHMPA Ca, Mg, Na, Co, Mn, Cu, and Zn salts at 1·10^−6-1·10^−12% concentrations (doses). The studies were conducted in laboratory in Petri dishes; seed bed—two layers of filter paper. 50 seeds soaked in water (control) and in the solutions of the tested compounds (experimental) were placed into each dish. Wheat, corn, and rice seeds were exposed for one hour.
(§3) Analysis was conducted according to the government standards GOST 12038-84 “Crop seeds. Technical conditions for determining the germination energy and germination rate”, GOST 12044-93 “Crop seeds. Methods for determining disease contamination.”
(§4) Seed germination energy and rate were calculated in percent as an arithmetic mean of the four experimental results (germination energy on the 4th day, wheat germination on the 8th day, rice and corn germination—on the 7th day). Germination was determined based on the germinating power indicators (length of the roots and sprouts and their wet and dry mass per 100 shoots).
(§5) The effect of pre-sowing seed treatment with the claimed BHMPA salts of biogenic metals was studied on winter wheat (Vershin variety), corn (Krasnodar 385 MV variety), and rice (Diamant variety).

[2] = tested on: corn (Krasnodar 385 MV variety); assay: Corn seed treatment with BHMPA salts: germination energy and germination rate
Experimental: as §1, §2, §3, §4, §5

[3] = tested on: corn (Krasnodar 385 MV variety); assay: Corn seed treatment with BHMPA salts: germinating power
Experimental: as §2, §4, §5
The above data describe the seed viability only at the initial stage of germination, while the germination ability at the later stage of germination is defined by the initial germinating power. The method for the determination of the germinating power comprises measuring the height of the sprouts and primary roots, as well as the biomass and the dry mass thereof per 100 seedlings. [M. A. Kartuzova. Initial Germinating Power as Method of Biological Assessment of Seed Quality. Selection and Seed Farming, #2, 1953].

[4] = winter wheat Vershin, 1·10^−6% solution
[5] = winter wheat Vershin, 1·10^−7% solution
[6] = winter wheat Vershin, 1·10^−8% solution
[7] = winter wheat Vershin, 1·10^−9% solution
[8] = winter wheat Vershin, 1·10^−10% solution
[9] = winter wheat Vershin, 1·10^−11% solution
[10] = winter wheat Vershin, 1·10^−12% solution
[11] = winter wheat, comparative study vs Melaphen, 1·10^−9% solution
[12] = comparative study vs Melaphen, 1·10^−8% solution
[13] = corn seeds, solution concentration 1 · 10^−6%, copper salt of BHMPA
[14] = corn seeds, solution concentration 1 · 10^−7%, copper salt of BHMPA
[15] = corn seeds, solution concentration 1 · 10^−8%, copper salt of BHMPA
[16] = corn seeds, solution concentration 1 · 10^−9%, copper salt of BHMPA
[17] = corn seeds, solution concentration 1 · 10^−10%, copper salt of BHMPA
[18] = corn seeds, solution concentration 1 · 10^−11%, copper salt of BHMPA
[19] = corn seeds, solution concentration 1 · 10^−12%, copper salt of BHMPA

Copper BHMPA Salt [Cu-salt]
Germination energy [1, 4]: 81.0%
Germination rate [1, 4]: 84.0%
Germination energy [1, 5]: 87.3%
Germination rate [1, 5]: 90.0%
Germination energy [1, 6]: 91.4%
Germination rate [1, 6]: 96.0%
Germination energy [1, 7]: 94.9%
Germination rate [1, 7]: 98.0% and 94.3%
Germination rate ([1]; winter wheat Vershin, 1·10^−9% solution, listed as Cu): 98.0%
Germination energy [1, 8]: 92.1%
Germination rate [1, 8]: 96.7%
Germination energy [1, 9]: 91.7%
Germination rate [1, 9]: 94.0%
Germination energy [1, 10]: 87.5%
Germination rate [1, 10]: 90.0%
Germination energy [1, 11]: 94.7%
Germination rate [1, 11]: 98.7%
Germination energy ([2]; 1·10^−6% solution): 80.0%
Germination rate ([2]; 1·10^−6% solution): 82.5%
Germination energy ([2]; 1·10^−7% solution): 82.3%
Germination rate ([2]; 1·10^−7% solution): 85.0%
Germination energy ([2]; 1·10^−8% solution): 91.8%
Germination rate ([2]; 1·10^−8% solution): 94.2%
Germination energy ([2]; 1·10^−9% solution): 90.0%
Germination rate ([2]; 1·10^−9% solution): 92.3%
Germination energy ([2]; 1·10^−10% solution): 85.8%
Germination rate ([2]; 1·10^−10% solution): 88.3%
Germination energy ([2]; 1·10^−11% solution): 82.3%
Germination rate ([2]; 1·10^−11% solution): 85.0%
Germination energy ([2]; 1·10^−12% solution): 78.8%
Germination rate ([2]; 1·10^−12% solution): 81.7%
Germination energy [2, 12]: 87.7%
Germination rate [2, 12]: 97.0%
optimum concentration for treating corn seeds before sowing ([3]; corn): 1·10^−8%
Length, root [3, 13]: 5.2 cm
Length, root, + % to control [3, 13]: 8%
Length, sprout [3, 13]: 4.2 cm
Length, sprout, + % to control [3, 13]: 20%
Mass, dry, root [3, 13]: 1.27 g/100 plantlings
Mass, dry, root, + % to control [3, 13]: 7%
Mass, dry, sprout [3, 13]: 1.01 g/100 plantlings
Mass, dry, sprout, + % to control [3, 13]: 2%
Mass, wet, root [3, 13]: 8.99 g/100 plantlings
Mass, wet, root, + % to control [3, 13]: 11%
Mass, wet, sprout [3, 13]: 7.21 g/100 plantlings
Mass, wet, sprout, + % to control [3, 13]: 15%
Length, root [3, 14]: 5.4 cm
Length, root, + % to control [3, 14]: 12.5%
Length, sprout [3, 14]: 4.6 cm
Length, sprout, + % to control [3, 14]: 31%
Mass, dry, root [3, 14]: 1.38 g/100 plantlings
Mass, dry, root, + % to control [3, 14]: 16%
Mass, dry, sprout [3, 14]: 1.09 g/100 plantlings
Mass, dry, sprout, + % to control [3, 14]: 10%
Mass, wet, root [3, 14]: 9.81 g/100 plantlings
Mass, wet, root, + % to control [3, 14]: 21%
Mass, wet, sprout [3, 14]: 7.94 g/100 plantlings
Mass, wet, sprout, + % to control [3, 14]: 27%
Length, root [3, 15]: 5.6 cm
Length, sprout [3, 15]: 4.8 cm
Length, sprout, + % to control [3, 15]: 37%
Mass, dry, root [3, 15]: 1.53 g/100 plantlings
Mass, dry, root, + % to control [3, 15]: 28.5%
Mass, dry, sprout [3, 15]: 1.17 g/100 plantlings
Mass, dry, sprout, + % to control [3, 15]: 18%
Mass, wet, root [3, 15]: 10.67 g/100 plantlings
Mass, wet, root, + % to control [3, 15]: 31%
Mass, wet, sprout [3, 15]: 8.82 g/100 plantlings
Mass, wet, sprout, + % to control [3, 15]: 41%
Length, root [3, 16]: 5.3 cm
Length, root, + % to control [3, 16]: 10%
Length, sprout [3, 16]: 4.7 cm
Length, sprout, + % to control [3, 16]: 34%
Mass, dry, root [3, 16]: 1.50 g/100 plantlings
Mass, dry, root, + % to control [3, 16]: 26%
Mass, dry, sprout [3, 16]: 1.13 g/100 plantlings
Mass, dry, sprout, + % to control [3, 16]: 14%
Mass, wet, root [3, 16]: 9.58 g/100 plantlings
Mass, wet, root, + % to control [3, 16]: 18%
Mass, wet, sprout [3, 16]: 8.75 g/100 plantlings
Mass, wet, sprout, + % to control [3, 16]: 40%
Length, root [3, 17]: 5.1 cm
Length, root, + % to control [3, 17]: 6%
Length, sprout [3, 17]: 4.4 cm
Length, sprout, + % to control [3, 17]: 26%
Mass, dry, root [3, 17]: 1.35 g/100 plantlings
Mass, dry, root, + % to control [3, 17]: 13%
Mass, dry, sprout [3, 17]: 1.07 g/100 plantlings
Mass, dry, sprout, + % to control [3, 17]: 8%
Mass, wet, root [3, 17]: 9.13 g/100 plantlings
Mass, wet, root, + % to control [3, 17]: 12%
Mass, wet, sprout [3, 17]: 7.88 g/100 plantlings
Mass, wet, sprout, + % to control [3, 17]: 26%
Length, root [3, 18]: 5.0 cm
Length, root, + % to control [3, 18]: 4%
Length, sprout [3, 18]: 3.9 cm
Length, sprout, + % to control [3, 18]: 11%
Mass, dry, root [3, 18]: 1.25 g/100 plantlings
Mass, dry, root, + % to control [3, 18]: 5%
Mass, dry, sprout [3, 18]: 0.97 g/100 plantlings
Mass, dry, sprout, + % to control [3, 18]: −2%
Mass, wet, root [3, 18]: 8.61 g/100 plantlings
Mass, wet, root, + % to control [3, 18]: 6%
Mass, wet, sprout [3, 18]: 6.79 g/100 plantlings
Mass, wet, sprout, + % to control [3, 18]: 9%
Length, root [3, 19]: 4.8 cm
Length, root, + % to control [3, 19]: 0%
Length, sprout [3, 19]: 3.7 cm
Length, sprout, + % to control [3, 19]: 6%
Mass, dry, root [3, 19]: 1.21 g/100 plantlings
Mass, dry, root, + % to control [3, 19]: 2%
Mass, dry, sprout [3, 19]: 0.92 g/100 plantlings
Mass, dry, sprout, + % to control [3, 19]: −7%
Mass, wet, root [3, 19]: 8.37 g/100 plantlings
Mass, wet, root, + % to control [3, 19]: 3%
Mass, wet, sprout [3, 19]: 6.35 g/100 plantlings
Mass, wet, sprout, + % to control [3, 19]: 2%
Length, root, + % to control ([3]; corn, 1·10^−8% solution): 16%
Length, sprout, + % to control ([3]; corn, 1·10^−8% solution): 37%
Mass, dry, root, + % to control ([3]; corn, 1·10^−8% solution): 28.5%
Mass, dry, sprout, + % to control ([3]; corn, 1·10^−8% solution): 18%
Mass, wet, root, + % to control ([3]; corn, 1·10^−8% solution): 31%
Mass, wet, sprout, + % to control ([3]; corn, 1·10^−8% solution): 41%
